Source: PubChem BioAssay (NCI)
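How tested: cells in 96-well plates exposed to compound for 48 hours at five concentrations. At the TGI there is no net growth.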

Experiments:
Test in all cases: growth of human tumour cells (NCI), 48 h
786-0 renal = test system: 786-0 renal
A498 renal = test system: A498 renal
A549 NSCLC = test system: A549 NSCLC
ACHN renal = test system: ACHN renal
CAKI-1 renal = test system: CAKI-1 renal
CCRF-CEM leukemia = test system: CCRF-CEM leukemia
COLO 205 colon = test system: COLO 205 colon
DLD-1 colon = test system: DLD-1 colon
DMS 114 small cell lung = test system: DMS 114 small cell lung
DMS 273 small cell lung = test system: DMS 273 small cell lung
EKVX NSCLC = test system: EKVX NSCLC
HCT-116 colon = test system: HCT-116 colon
HCT-15 colon = test system: HCT-15 colon
HOP-62 NSCLC = test system: HOP-62 NSCLC
HOP-92 NSCLC = test system: HOP-92 NSCLC
HT29 colon = test system: HT29 colon
IGROV1 ovarian = test system: IGROV1 ovarian
K-562 leukemia = test system: K-562 leukemia
KM12 colon = test system: KM12 colon
LXFL 529 NSCLC = test system: LXFL 529 NSCLC
M14 melanoma = test system: M14 melanoma
M19-MEL melanoma = test system: M19-MEL melanoma
MALME-3M melanoma = test system: MALME-3M melanoma
MOLT-4 leukemia = test system: MOLT-4 leukemia
NCI-H23 lung = test system: NCI-H23 lung
NCI-H460 lung = test system: NCI-H460 lung
NCI-H522 lung = test system: NCI-H522 lung
OVCAR-3 ovarian = test system: OVCAR-3 ovarian
OVCAR-8 ovarian = test system: OVCAR-8 ovarian
RPMI-8226 leukemia = test system: RPMI-8226 leukemia
SF-268 CNS = test system: SF-268 CNS
SF-539 CNS = test system: SF-539 CNS
SK-MEL-2 melanoma = test system: SK-MEL-2 melanoma
SK-MEL-28 melanoma = test system: SK-MEL-28 melanoma
SK-MEL-5 melanoma = test system: SK-MEL-5 melanoma
SK-OV-3 ovarian = test system: SK-OV-3 ovarian
SN12C renal = test system: SN12C renal
SNB-19 CNS = test system: SNB-19 CNS
SNB-75 CNS = test system: SNB-75 CNS
SNB-78 CNS = test system: SNB-78 CNS
SR leukemia = test system: SR leukemia
SW-620 colon = test system: SW-620 colon
TK-10 renal = test system: TK-10 renal
U251 CNS = test system: U251 CNS
UACC-62 melanoma = test system: UACC-62 melanoma
UO-31 renal = test system: UO-31 renal
XF 498 CNS = test system: XF 498 CNS
HCC-2998 colon = test system: HCC-2998 colon
HL-60(TB) leukemia = test system: HL-60(TB) leukemia
LOX IMVI melanoma = test system: LOX IMVI melanoma
NCI-H226 lung = test system: NCI-H226 lung
OVCAR-4 ovarian = test system: OVCAR-4 ovarian
OVCAR-5 ovarian = test system: OVCAR-5 ovarian
RXF 393 renal = test system: RXF 393 renal
SF-295 CNS = test system: SF-295 CNS
UACC-257 melanoma = test system: UACC-257 melanoma
KM20L2 colon = test system: KM20L2 colon

Measured: TGI

CCOC(=O)Cn1c(=O)n(C)c(=O)c2[nH]cnc21
> 100 µM: 786-0 renal | A498 renal | A549 NSCLC | ACHN renal | CAKI-1 renal | CCRF-CEM leukemia | COLO 205 colon | DLD-1 colon | DMS 114 small cell lung | DMS 273 small cell lung | EKVX NSCLC | HCT-116 colon | HCT-15 colon | HOP-62 NSCLC | HOP-92 NSCLC | HT29 colon | IGROV1 ovarian | K-562 leukemia | KM12 colon | LXFL 529 NSCLC | M14 melanoma | M19-MEL melanoma | MALME-3M melanoma | MOLT-4 leukemia | NCI-H23 lung | NCI-H460 lung | NCI-H522 lung | OVCAR-3 ovarian | OVCAR-8 ovarian | RPMI-8226 leukemia | SF-268 CNS | SF-539 CNS | SK-MEL-2 melanoma | SK-MEL-28 melanoma | SK-MEL-5 melanoma | SK-OV-3 ovarian | SN12C renal | SNB-19 CNS | SNB-75 CNS | SNB-78 CNS | SR leukemia | SW-620 colon | TK-10 renal | U251 CNS | UACC-62 melanoma | UO-31 renal | XF 498 CNS

CCOC(=O)c1oc2c(OC)cc(Cl)c3c2c1CCC3
65.3 µM: RXF 393 renal
97.6 µM: SNB-19 CNS
80.6 µM: XF 498 CNS
> 100 µM: 786-0 renal | A498 renal | A549 NSCLC | ACHN renal | CCRF-CEM leukemia | COLO 205 colon | DLD-1 colon | DMS 114 small cell lung | DMS 273 small cell lung | EKVX NSCLC | HCC-2998 colon | HCT-116 colon | HCT-15 colon | HL-60(TB) leukemia | HT29 colon | IGROV1 ovarian | K-562 leukemia | KM12 colon | LOX IMVI melanoma | LXFL 529 NSCLC | M14 melanoma | M19-MEL melanoma | MALME-3M melanoma | MOLT-4 leukemia | NCI-H23 lung | NCI-H460 lung | NCI-H522 lung | OVCAR-4 ovarian | OVCAR-5 ovarian | OVCAR-8 ovarian | RPMI-8226 leukemia | SF-268 CNS | SF-295 CNS | SF-539 CNS | SK-MEL-2 melanoma | SK-MEL-28 melanoma | SK-MEL-5 melanoma | SK-OV-3 ovarian | SN12C renal | SNB-78 CNS | SR leukemia | SW-620 colon | U251 CNS | UACC-257 melanoma | UACC-62 melanoma
73.3 µM: NCI-H226 lung
79.3 µM: TK-10 renal
28.3 µM: OVCAR-3 ovarian
63.8 µM: HOP-92 NSCLC
76.5 µM: SNB-75 CNS
65.1 µM: UO-31 renal

CN(N=O)C(=O)N(N)CCCCC(NC(=O)OCc1ccccc1)C(=O)OCc1ccccc1 (stereo unspecified)
16.2 µM: HL-60(TB) leukemia
34.5 µM: HOP-92 NSCLC
45.8 µM: LOX IMVI melanoma
46.3 µM: SN12C renal
52.6 µM: MOLT-4 leukemia
57 µM: OVCAR-3 ovarian
85.9 µM: SNB-78 CNS
63.4 µM: HCC-2998 colon
35.2 µM: SF-539 CNS
34.2 µM: ACHN renal | HOP-62 NSCLC
38.8 µM: NCI-H23 lung
45.6 µM: COLO 205 colon
70.7 µM: M14 melanoma
62.8 µM: SNB-75 CNS
51.7 µM: UACC-257 melanoma
95.5 µM: MALME-3M melanoma
24.9 µM: NCI-H522 lung
96.2 µM: NCI-H226 lung
72.3 µM: CAKI-1 renal
> 100 µM: A498 renal | A549 NSCLC | DLD-1 colon | DMS 114 small cell lung | DMS 273 small cell lung | EKVX NSCLC | HCT-116 colon | HCT-15 colon | HT29 colon | IGROV1 ovarian | K-562 leukemia | KM12 colon | KM20L2 colon | LXFL 529 NSCLC | M19-MEL melanoma | NCI-H460 lung | OVCAR-4 ovarian | OVCAR-5 ovarian | OVCAR-8 ovarian | RPMI-8226 leukemia | SF-295 CNS | SK-MEL-2 melanoma | SK-MEL-28 melanoma | SK-MEL-5 melanoma | SK-OV-3 ovarian | SNB-19 CNS | SW-620 colon | TK-10 renal | U251 CNS
66.5 µM: 786-0 renal
44.7 µM: UACC-62 melanoma
51.6 µM: RXF 393 renal
32.2 µM: XF 498 CNS
33.8 µM: UO-31 renal
38.5 µM: CCRF-CEM leukemia
